Laboratory results published in article PMC4219987 (FEBS Open Bio, 2014).
Like-named read-outs stand apart in the source and are kept apart here.

Key:
[1] = test system: LDH-2 (Ec. mundtii LDH-2); conditions: read-out: LDH-2 D241N / pH 5.5, pH 5.5 (MES-NaOH), 3 mM FBP (activator)
[2] = test system: LDH-2 (Ec. mundtii LDH-2); conditions: read-out: LDH-2 D241N / pH 5.5; pH 5.5 (MES-NaOH), 1.5 mM NADH, 20 mM pyruvate; allosteric activator

With `NC(=O)C1=CN([C@@H]2O[C@H](COP(=O)(O)OP(=O)(O)OC[C@H]3O[C@@H](n4cnc5c(N)ncnc54)[C@H](O)[C@@H]3O)[C@@H](O)[C@H]2O)C=CC1` [NADH] the Km ([1]; 20 mM pyruvate) was 200 ± 40 µM.
With `O=P(O)(O)OC[C@H]1OC(O)(COP(=O)(O)O)[C@@H](O)[C@@H]1O` (stereo partly drawn) [FBP] the EC50 [2] was 76 ± 45 nM.
`CC(=O)C(=O)O` [pyruvate] showed a Km ([1]; 1.5 mM NADH) of 2300 ± 400 µM.
